From paper PMC5045423, “X66, a novel N-terminal heat shock protein 90 inhibitor, exerts antitumor effects without induction of heat shock response” (Oncotarget, 2016)

Columns and labels:
HSP90α [1] = molecular target: T1, HSP90α (Homo sapiens, UniProt P07900); experiment: streptavidin pull-down of purified full-length HSP90α and NTD, competed by excess soluble X66; assay type: binding; set-up: gene HSP90AA1; recombinant human full-length protein and its N-terminal fragment, but not the C-terminal fragment
HSP90α [2] = molecular target: T1, HSP90α; experiment: SPR (BIAcore […], immobilized full-length HSP90α); also competes with Biotin-X66 for the N-terminal domain in pull-down; assay type: binding; set-up: gene HSP90AA1; recombinant human full-length HSP90α

Row | Structure (SMILES) | streptavidin pull-down of purified full-length HSP90α and NTD, competed by exces (HSP90α [1]) | Kd (HSP90α [2])
1 | Cc1cc(C)n(-c2nc(NN=Cc3cn(C(=O)CCCC[C@@H]4SC[C@@H]5NC(=O)N[C@@H]54)c4ccccc34)nc(Nc3ccc(Br)cc3)n2)n1 [Biotin-X66] | Biotin-X66 was able to isolate the recombinant human full-length protein and its N-terminal fragment, but not the C-terminal fragment | 
2 | Cc1cc(C)n(-c2nc(NN=Cc3c[nH]c4ccccc34)nc(Nc3ccc(Br)cc3)n2)n1 [X66, 4-(2-((1H-indol-3-yl)methylene)hydrazinyl)-N-(4-bromophenyl)-6-(3,5-dimethyl-1H -pyrazol-1-yl)-1,3,5-triazin-2-amine] |  | 5.3 µM
